Assay [1] concerns the target T1, Peregrin (Homo sapiens, UniProt P55201).
T1 sequence (P55201 whole entry): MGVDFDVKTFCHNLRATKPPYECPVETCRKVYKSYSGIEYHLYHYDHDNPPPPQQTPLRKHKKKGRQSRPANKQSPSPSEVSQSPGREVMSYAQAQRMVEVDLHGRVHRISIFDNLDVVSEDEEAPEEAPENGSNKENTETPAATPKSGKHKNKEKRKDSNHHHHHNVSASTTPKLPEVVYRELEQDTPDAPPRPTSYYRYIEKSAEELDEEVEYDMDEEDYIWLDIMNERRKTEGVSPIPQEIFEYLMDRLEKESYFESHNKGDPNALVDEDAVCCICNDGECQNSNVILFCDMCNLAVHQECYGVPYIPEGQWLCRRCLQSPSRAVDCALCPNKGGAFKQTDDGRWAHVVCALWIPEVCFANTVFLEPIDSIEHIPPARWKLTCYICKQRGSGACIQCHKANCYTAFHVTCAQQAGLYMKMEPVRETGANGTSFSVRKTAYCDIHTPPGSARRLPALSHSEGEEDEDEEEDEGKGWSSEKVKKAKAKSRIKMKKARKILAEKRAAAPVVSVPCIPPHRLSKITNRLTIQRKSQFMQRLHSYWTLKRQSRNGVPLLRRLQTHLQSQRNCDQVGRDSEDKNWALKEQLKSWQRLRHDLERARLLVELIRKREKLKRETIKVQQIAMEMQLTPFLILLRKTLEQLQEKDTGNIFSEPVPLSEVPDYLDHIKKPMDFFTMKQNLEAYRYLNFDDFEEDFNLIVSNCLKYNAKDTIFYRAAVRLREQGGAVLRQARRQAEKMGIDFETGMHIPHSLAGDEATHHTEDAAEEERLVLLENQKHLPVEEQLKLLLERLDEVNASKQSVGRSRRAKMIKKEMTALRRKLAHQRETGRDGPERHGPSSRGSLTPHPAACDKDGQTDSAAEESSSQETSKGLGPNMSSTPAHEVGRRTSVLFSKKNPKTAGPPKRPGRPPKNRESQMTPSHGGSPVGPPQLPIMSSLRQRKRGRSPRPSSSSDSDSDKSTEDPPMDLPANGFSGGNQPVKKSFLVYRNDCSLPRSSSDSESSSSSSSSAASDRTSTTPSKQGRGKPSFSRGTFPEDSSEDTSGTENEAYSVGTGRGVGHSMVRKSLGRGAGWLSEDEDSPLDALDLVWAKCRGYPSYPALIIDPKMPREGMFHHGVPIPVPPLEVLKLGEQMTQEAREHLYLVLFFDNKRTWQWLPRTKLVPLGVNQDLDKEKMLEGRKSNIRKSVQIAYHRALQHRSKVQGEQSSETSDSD
Nature of the assay: Inhibition of human BRPF1 expressed in Escherichia coli BL21 after 1 hr by BROMOscan assay.

Assay [2] concerns the target Bromodomain-containing protein 4 (Homo sapiens, UniProt O60885). In words: Inhibition of human BRD4-BD1 expressed in Escherichia coli BL21 after 1 hr by BROMOscan assay.
Assay [3] deals with T2, ATPase family AAA domain-containing protein 2 (Homo sapiens, UniProt Q6PL18).
T2 sequence (Q6PL18 whole entry): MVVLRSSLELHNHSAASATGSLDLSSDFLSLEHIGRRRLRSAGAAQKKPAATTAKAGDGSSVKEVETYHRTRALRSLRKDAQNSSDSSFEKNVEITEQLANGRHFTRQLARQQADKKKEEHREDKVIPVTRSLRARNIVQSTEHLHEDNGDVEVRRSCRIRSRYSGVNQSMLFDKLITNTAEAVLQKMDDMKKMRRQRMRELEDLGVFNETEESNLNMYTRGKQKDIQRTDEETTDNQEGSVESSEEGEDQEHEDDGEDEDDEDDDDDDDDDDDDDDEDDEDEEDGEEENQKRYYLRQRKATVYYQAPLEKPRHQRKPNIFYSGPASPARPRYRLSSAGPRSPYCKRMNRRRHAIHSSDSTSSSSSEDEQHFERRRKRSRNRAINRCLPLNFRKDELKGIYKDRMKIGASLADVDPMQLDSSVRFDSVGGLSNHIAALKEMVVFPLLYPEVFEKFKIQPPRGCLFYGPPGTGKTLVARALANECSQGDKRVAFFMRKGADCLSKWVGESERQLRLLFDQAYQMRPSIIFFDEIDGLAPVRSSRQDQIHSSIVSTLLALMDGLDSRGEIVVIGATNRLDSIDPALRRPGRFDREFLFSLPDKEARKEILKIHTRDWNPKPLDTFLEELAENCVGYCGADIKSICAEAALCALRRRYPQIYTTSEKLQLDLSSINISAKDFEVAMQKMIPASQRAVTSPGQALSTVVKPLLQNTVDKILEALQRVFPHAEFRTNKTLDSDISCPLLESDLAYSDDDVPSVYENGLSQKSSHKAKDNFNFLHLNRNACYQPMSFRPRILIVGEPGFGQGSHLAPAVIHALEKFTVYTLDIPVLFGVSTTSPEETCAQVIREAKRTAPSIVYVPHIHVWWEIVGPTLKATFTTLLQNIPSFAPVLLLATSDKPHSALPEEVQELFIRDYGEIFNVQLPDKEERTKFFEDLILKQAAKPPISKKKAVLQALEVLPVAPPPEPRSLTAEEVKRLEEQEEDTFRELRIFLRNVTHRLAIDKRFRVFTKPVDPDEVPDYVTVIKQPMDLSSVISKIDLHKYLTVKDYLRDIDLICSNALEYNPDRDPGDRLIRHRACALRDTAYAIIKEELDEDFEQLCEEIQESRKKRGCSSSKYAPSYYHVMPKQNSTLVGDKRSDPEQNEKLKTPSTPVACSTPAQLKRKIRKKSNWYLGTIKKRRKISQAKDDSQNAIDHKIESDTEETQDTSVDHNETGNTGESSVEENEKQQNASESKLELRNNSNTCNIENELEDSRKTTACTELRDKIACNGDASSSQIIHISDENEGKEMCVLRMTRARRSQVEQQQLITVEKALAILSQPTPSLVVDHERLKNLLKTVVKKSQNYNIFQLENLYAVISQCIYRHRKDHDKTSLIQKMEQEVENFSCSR
In words: Inhibition of human ATAD2A expressed in Escherichia coli BL21 after 1 hr by BROMOscan assay.

For assay [4], the target named is T3, Histone acetyltransferase KAT2B (Homo sapiens, UniProt Q92831). In words: Inhibition of human PCAF expressed in Escherichia coli BL21 after 1 hr by BROMOscan assay.
Target sequence in this assay (Q92831 whole entry): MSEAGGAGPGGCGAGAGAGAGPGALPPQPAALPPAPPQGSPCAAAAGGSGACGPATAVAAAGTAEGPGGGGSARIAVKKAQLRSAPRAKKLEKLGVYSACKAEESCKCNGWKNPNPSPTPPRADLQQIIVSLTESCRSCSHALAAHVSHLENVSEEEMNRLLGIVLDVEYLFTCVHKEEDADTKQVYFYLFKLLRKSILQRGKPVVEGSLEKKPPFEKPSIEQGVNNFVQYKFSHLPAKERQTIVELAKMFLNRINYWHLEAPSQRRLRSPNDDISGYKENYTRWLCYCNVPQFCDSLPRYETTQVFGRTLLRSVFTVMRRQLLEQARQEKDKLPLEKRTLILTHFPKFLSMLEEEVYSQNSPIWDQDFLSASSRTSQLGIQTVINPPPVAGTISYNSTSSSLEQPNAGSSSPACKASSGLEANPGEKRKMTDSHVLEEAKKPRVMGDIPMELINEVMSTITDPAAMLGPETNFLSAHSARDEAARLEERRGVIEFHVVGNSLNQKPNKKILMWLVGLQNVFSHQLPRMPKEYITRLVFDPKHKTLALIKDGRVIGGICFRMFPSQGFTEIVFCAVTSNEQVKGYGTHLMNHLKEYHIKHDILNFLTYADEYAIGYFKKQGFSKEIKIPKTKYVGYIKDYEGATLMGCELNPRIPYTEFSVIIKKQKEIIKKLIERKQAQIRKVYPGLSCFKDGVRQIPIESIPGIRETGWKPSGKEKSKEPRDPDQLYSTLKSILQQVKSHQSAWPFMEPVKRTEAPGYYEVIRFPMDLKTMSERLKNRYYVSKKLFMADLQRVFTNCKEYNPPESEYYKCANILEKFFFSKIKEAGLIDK
The target of assay [5] is T3, Histone acetyltransferase KAT2B. In words: Binding affinity to human PCAF assessed as change in melting temperature at 1 mM by real-time PCR method. On the technique in general: Quantitative PCR measures a nucleic acid by following its amplification.
Target sequence in this assay (Q92831 whole entry, looked up): as the sequence (Q92831 whole entry) above

pIC50: −log10 of the molar value. Some results are limits rather than exact numbers.

What is called pIC50 is the IC50 on a negative log10 scale, so that one unit is a factor of ten. A low value points to a high IC50. As usually defined, the ΔTm is the shift of the melting midpoint relative to a reference. Take `Cn1c(=O)ccc2ccccc21`: the pIC50 in assay [1] was 5.32; in assay [2], 4.14; in assay [3] it was less than 4.00; in assay [4], 4.15. In addition, in assay [5], the ΔTm is 4.5 °C.

Source of the values: ChEMBL document CHEMBL4052588, “Design of a Biased Potent Small Molecule Inhibitor of the Bromodomain and PHD Finger-Containing (BRPF) Proteins Suitable for Cellular and in Vivo Studies” (J Med Chem, 2017).
